pIC50: −log10 of the molar value. Like-named read-outs stand apart in the source and are kept apart here.
Key:
HL-60/TX1000 = test: In vitro anti-cancer activity against multi-drug resistant cancer cells, MTS assay; assay type: cell-based; conditions: Homo sapiens, HL60/TX1000; for IC50: HL-60/TX1000, Table 3, read-out: IC50 (uM) HL-60/TX1000; for pIC50: HL-60/TX1000, Table 2, read-out: IC50
Experimental: (§1) The cell lines were maintained in RPMI1640(GIBCO) supplemented with 10% FCS, 100 units/ml penicillin, 100 ug/ml streptomycin, and 2 mM L-glutamine. The cells were split every third day and diluted to a concentration of 2×10^5 cells/ml one day before experiment. All experiments were performed on exponentially growing cell culture. Cell densities were 2.5×10^4 cells/ml in all experiment.
(§2) A stock solution of Compound (1) was prepared by dissolving the compound at a concentration of 1 mM in 100% DMSO. Final concentrations were obtained by diluting the stock solution directly into the tissue culture medium. Cells were incubated with varying concentrations of the compounds for 72 hours and the IC50 was determined by MTS (i.e. […]) assay. IC50 stands for the concentration of compound required to inhibit 50% tumor cell growth.
(§3) In vitro activity was determined in two MDR (Multi Drug Resistant) human cancer cell lines. HL-60/TX1000 was isolated in vitro by subculturing HL-60 in progressively higher concentration of Taxol. HL-60/TX1000 cells over-express mdr-1 mRNA and p-glycoprotein, as determined by western blot and immunofluorescence labeling with antiPGP antibodies. The cell is cross-resistant to Taxol, Vincristine, Adriamycin, Etoposide and Doxorubicin. MES-SA/Dx5 was established in the presence of increasing concentrations of Doxorubicin. […] MES-SA/Dx5 was purchased from ATCC.
(§4) The procedure for culturing the cells and assaying cancer cell growth inhibition were as described in Example 12.
(§5) The protocol described in Examples 12-13 was used to assay inhibition by Compound (2)-(12) on the growth of the multidrug resistant cancer cell line MES-SA/DX5 and HL-60/TX1000.

MES-SA/DX5 = test: as above; assay type: cell-based; conditions: Homo sapiens; for IC50: MES-SA/DX5, Table 3, read-out: IC50 (uM) MES-SA/DX5; for pIC50: MES-SA/Dx5, MES-SA/DX-5, Table 2, read-out: IC50
Experimental: as §1, §2, §3, §4, §5

p388 = test: In vitro anti-cancer activity, MTS assay, 72 hours; assay type: cell-based, murine; conditions: Mus musculus, p388, 72 hours
Experimental: (§6) The in vitro activity of the compounds was determined in the following seven human cancer cell lines. MDA435 (human breast cancer), MIP10 (human colon cancer), HL-60 (human myeloid leukemia), U937 (human leukemia), p388 (murine leukemia), DU-145 (human prostate cancer), MES-SA (human uterine sarcoma) were obtained from ATCC (American Type of Culture Collection).
as §1, §2

DU-145 = test: In vitro anti-cancer activity, MTS assay, 72 hours; assay type: cell-based; conditions: Homo sapiens, DU-145, 72 hours
Experimental: as §6, §1, §2

H2 = test: In vitro anti-cancer activity, MTS assay, 72 hours; assay type: cell-based; conditions: Homo sapiens, H2, 72 hours
Experimental: as §6, §1, §2

HL-60 = test: In vitro anti-cancer activity, MTS assay, 72 hours; assay type: cell-based; conditions: Homo sapiens, HL-60, 72 hours
Experimental: as §6, §1, §2

MDA-435 = test: In vitro anti-cancer activity, MTS assay, 72 hours; assay type: cell-based; conditions: Homo sapiens, MDA435, MDA-435, 72 hours
Experimental: as §6, §1, §2

MES-SA = test: In vitro anti-cancer activity, MTS assay, 72 hours; assay type: cell-based; conditions: Homo sapiens
Experimental: as §6, §1, §2

A549 = test: In vitro anti-cancer activity, MTS assay, 72 hours; assay type: cell-based; conditions: Homo sapiens, A549, 72 hours
seven cancer cell lines = test: In vitro anti-cancer activity, summary over seven cancer cell lines; assay type: cell-based; conditions: range over the seven cell lines of Table 1; read-out: IC50 against seven cancer cell lines
Experimental: as §6, §1, §2

[1] = system: MDR cell lines (MES-SA/DX5, HL-60/TX1000); test: In vitro anti-cancer activity, summary over both MDR cell lines; assay type: cell-based, human
Experimental: as §1, §2
In vitro activity was determined in two MDR (Multi Drug Resistant) human cancer cell lines. HL-60/TX1000 was isolated in vitro by subculturing HL-60 in progressively higher concentration of Taxol. HL-60/TX1000 cells over-express mdr-1 mRNA and p-glycoprotein, as determined by western blot and immunofluorescence labeling with antiPGP antibodies. The cell is cross-resistant to Taxol, Vincristine, Adriamycin, Etoposide and Doxorubicin. […]

[2] = system: human breast tumor (MDA435); test: Tumor growth inhibition assay, human breast tumor (MDA435) xenograft model; assay type: in vivo, mouse
Experimental: (§7) The in vivo anti-cancer efficacy of Compound (2) was assessed in tumor bearing mice using a tumor growth inhibition assay. Human breast tumor (MDA-435) cells were implanted by injection of a tumor cell suspension subcutaneously in the flank of a nude mouse. Treatment of the tumor with an experimental compound began after the tumor had been established (volume was approximately 100 mm^3). The animal then began a multiple injection schedule where the compound was administered orally. Tumors were measured two times a week. During the course of this assay, animals were monitored daily for signs of toxicity including body weight loss.
A supplemented media was prepared from 50% DMEM/Dulbecco Modified Eagle Medium (High Glucose), 50% RPMI 1640, 10% FBS/Fetal Bovine Serum (Hybridoma Tested; Sterile Filtered), 1% L-Glutamine, 1% Penicillin-Streptomycin, 1% MEM Sodium Pyruvate, 1% MEM Non-Essential Amino Acids. […]
The flask was washed with 10 ml of sterile room temperature phosphate buffered saline (PBS). […] The supernatant was aspirated and the cell pellet was resuspended in 10 ml of supplemented media and the cells were counted. […]
The above procedure for trypsinizing and centrifuging the cells were followed. The supernatant was aspirated and the cell pellet was resuspended in 10 ml of sterile PBS and the cells were counted. […]

[3] = Body weight of treated tumor bearing mice (signs of toxicity); assay type: in vivo, mouse
Experimental: as §7
A dosing solution for compound administration was prepared by dissolving 1 gram of Compound (2) in 10 ml of acetone (HPLC grade), and sonicated for 5 minutes using 550 Sonic Dismembrator. 1.2 equivalents of 1 N HCl aqueous solution were added to the acetone solution which was then sonicated for 5 minutes. All solvent was then evaporated from the solution by using Speed Vac Plus SC 250 DDA over night. The dried powder was used for preparing the dosing solution of Compound (2). 1% Methyl cellulose (MC) vehicle was prepared by dissolving 1.0 gram of Methyl cellulose, 400 cps, U.S.P. (Spectrum Laboratory Products, Cat. # ME136) in 100 mL of H2O. This mixture was then stirred for 12 hours at room temperature to produce a clear 1% MC solution. […]

**Q.** Which IC50 (HL-60/TX1000) does the source give for `CC1(C)COC(c2cnc(C(=O)c3cn(Cc4ccc(Cl)cc4)c4ccccc34)[nH]2)=N1` [Compound 12, [1-(4-chlorobenzyl)-1H-indol-3-yl]-[5-(4,4-dimethyl-4,5-dihydro-oxazol-2-yl)-1H-imidazo 1-2-yl]-methanone] here?
**A.** 0.5 µM

**Q.** What about the IC50 (MES-SA/DX5) of the same molecule?
**A.** 0.5 µM

**Q.** With `O=C(c1nc2cnccc2[nH]1)c1cn(Cc2ccc(Cl)cc2)c2ccccc12` [Compound (1)] as the molecule, how does the pIC50 (p388) read?
**A.** 7.30

**Q.** And the pIC50 (DU-145)?
**A.** 7.30

**Q.** And the pIC50 (H2)?
**A.** 7.30

**Q.** What about the pIC50 (HL-60) of the same molecule?
**A.** 7.30

**Q.** And the pIC50 (MDA-435)?
**A.** 7.30

**Q.** And the pIC50 (MES-SA)?
**A.** 8.00

**Q.** And the pIC50 (A549)?
**A.** 7.30

**Q.** And the pIC50 (HL-60/TX1000)?
**A.** 7.30

**Q.** What about the pIC50 (MES-SA/DX5) of the same molecule?
**A.** 7.30

**Q.** And the pIC50 (seven cancer cell lines)?
**A.** 7.30 to 8.00

**Q.** And the “anti-cancer activity against MDR cancer cell lines” value ([1]; MES-SA/DX5 and HL-60/TX1000, in words)?
**A.** high anti-cancer activity

**Q.** With `O=C(c1nc2ccncc2[nH]1)c1cc(Cc2ccc(Cl)cc2)n2ccccc12` [Compound 7] as the molecule, how does the IC50 (HL-60/TX1000) read?
**A.** 0.05 µM

**Q.** And the IC50 (MES-SA/DX5)?
**A.** 0.5 µM

**Q.** For `COC(=O)c1cnc(C(=O)c2cn(Cc3ccc(Cl)cc3)c3ccccc23)[nH]1` [Compound 8, 2-[1-(4-chloro-benzyl)-1H-indole-3-carbonyl]-3H-imidazole-4-carboxylic acid methyl ester], which IC50 (HL-60/TX1000) is on record?
**A.** 0.05 µM

**Q.** And the IC50 (MES-SA/DX5)?
**A.** 0.1 µM

**Q.** For `O=C(c1nc(-c2ccccn2)c[nH]1)c1cn(Cc2ccc(Cl)cc2)c2ccccc12` [Compound 9, [1-(4-Chloro-benzyl)-1H-indol-3-yl]-(4-pyridin-2-yl-1H-imidazol-2-yl)-methanone], which IC50 (HL-60/TX1000) is on record?
**A.** 0.5 µM

**Q.** What about the IC50 (MES-SA/DX5) of the same molecule?
**A.** 0.5 µM

**Q.** Which results are given for `O=C(c1cccnc1)c1c[nH]c(C(=O)c2cn(Cc3ccc(Cl)cc3)c3ccccc23)n1` [Compound 10, [1-(4-Chlorobenzyl)-1H-indol-3-yl]-[4-(pyridine-3-carbonyl)-1H-imidazol-2-yl]methanone]?
**A.** IC50 (HL-60/TX1000): 0.5 µM; IC50 (MES-SA/DX5): 0.5 µM

**Q.** With `N#Cc1ccc(Cn2cc(C(=O)c3nc4cnccc4[nH]3)c3ccccc32)cc1` [Compound 2] as the molecule, how does the IC50 (HL-60/TX1000) read?
**A.** 0.05 µM

**Q.** And the IC50 (MES-SA/DX5)?
**A.** 0.05 µM

**Q.** And the tumor growth inhibition ([2]; MDA435 in nude mice, 25 mg/kg orally, 3 times a week for 3 weeks)?
**A.** significantly inhibits tumor growth

**Q.** And the “reduction of the volume of tumors” value ([2]; MDA435 tumors in nude mice, administered orally)?
**A.** greater than 50%

**Q.** What about the “change in body weight” value ([3]; mice treated with Compound (2)) of the same molecule?
**A.** Little or no change in body weight

**Q.** What about the loss of weight ([3]; nude mice, 25 mg/kg orally, 3 times a week for 3 weeks) of the same molecule?
**A.** less than 5%

**Q.** Which IC50 (HL-60/TX1000) does the source give for `CCC(=O)c1c[nH]c(C(=O)c2cn(Cc3ccc(Cl)cc3)c3ccccc23)n1` [Compound 11] here?
**A.** 0.5 µM

**Q.** What about the IC50 (MES-SA/DX5) of the same molecule?
**A.** 0.5 µM

**Q.** With `Cc1cccc2c(C(=O)c3nc4ccncc4[nH]3)cn(Cc3ccc(Cl)cc3)c12` [Compound 5] as the molecule, how does the IC50 (HL-60/TX1000) read?
**A.** 0.1 µM

**Q.** What about the IC50 (MES-SA/DX5) of the same molecule?
**A.** 0.5 µM

**Q.** Which results are given for `O=C(c1nc2ccncc2[nH]1)c1cn(Cc2ccc(Cl)cc2)c2cc(F)ccc12` [Compound 6]?
**A.** IC50 (HL-60/TX1000): 0.05 µM; IC50 (MES-SA/DX5): 0.05 µM

**Q.** With `CC[C@]1(O)C[C@H]2CN(CCc3c([nH]c4ccccc34)[C@@](C(=O)OC)(c3cc4c(cc3OC)N(C=O)[C@H]3[C@@](O)(C(=O)OC)[C@H](OC(C)=O)[C@]5(CC)C=CCN6CC[C@]43[C@@H]65)C2)C1` [Vincristine, reference compound] as the molecule, how does the pIC50 (HL-60/TX1000) read?
**A.** 5.30

**Q.** And the pIC50 (MES-SA/DX5)?
**A.** 6.00

**Q.** And the pIC50 ([1]; Homo sapiens, MES-SA/DX5 and HL-60/TX1000, text summary of Tables 2 and 3, read-out: IC50 against the MDR cell lines)?
**A.** 5.30 to 6.00

**Q.** For `O=C(c1nc2cnccc2[nH]1)c1cn(Cc2ccc(Cl)c(Cl)c2)c2ccccc12` [Compound 3], which IC50 (HL-60/TX1000) is on record?
**A.** 0.04 µM

**Q.** And the IC50 (MES-SA/DX5)?
**A.** 0.05 µM

**Q.** Which results are given for `Cc1ccc(Cn2cc(C(=O)c3nc4cnccc4[nH]3)c3ccccc32)cc1` [Compound 4]?
**A.** IC50 (HL-60/TX1000): 0.05 µM; IC50 (MES-SA/DX5): 0.05 µM

**Q.** With `CC(=O)O[C@H]1C(=O)[C@@]2(C)[C@H]([C@H](OC(=O)c3ccccc3)[C@]3(O)C[C@H](OC(=O)[C@H](O)[C@@H](NC(=O)c4ccccc4)c4ccccc4)C(C)=C1C3(C)C)[C@]1(OC(C)=O)CO[C@@H]1C[C@@H]2O` [Taxol, reference compound] as the molecule, how does the pIC50 (HL-60/TX1000) read?
**A.** 5.30

**Q.** What about the pIC50 (MES-SA/DX5) of the same molecule?
**A.** 5.30

Reference: US20040186129A1, “2-Aroylimidazole compounds for treating cancer” (priority 2001, published 2004)
